Reference: patent US5807850A, “Therapeutic agent for osteoporosis and triazepine compound” (Japan Tobacco, Inc., priority 1994, dated 1998)
Counter-ions that a name gives are not always drawn. Like-named read-outs stand apart in the source and are kept apart here.

Test system: calvaria
Assay: Inhibition of bone resorption (45Ca release from calvaria stimulated with hPTH (1-34), method of Raisz)
Type: cell-based, new born ICR mouse
Settings: read-out: IC50 (inhibition of bone resorption)
[1] = Mus musculus, 72 h, 45Ca release, 50 nM hPTH (1-34), 3 days incubation, test concentrations 0.04, 0.2 and 1 μM, mean of 4 pairs
[2] = 45Ca release, 50 nM hPTH (1-34), 3 days incubation, test concentrations 0.04, 0.2 and 1 μM, mean of 4 pairs

Description: The determination of the inhibitory action on the bone resorption was basically in accordance with the method of Raisz [J. Clin. Invest. vol.
A new born ICR mouse (one or two days old) was intraperitoneally administered with 1.5μ Ci ^45 Ca (isotope of calcium as CaCl2 solution) and calvaria was aseptically removed the next day. The calvaria was split into two along the central suture line, and one of them was used as a control and the other was used as a test compound. The calvaria was preincubated at 37° C. for 2 days in BGJb medium [0.5 ml, Fitton-Jackson modification, GIBCO Laboratories, USA, containing bovine serum albumin 1 mg/ml] added with a test compound to the concentrations of 0.04 μM, 0.2 μM and 1 μM and then in the above-mentioned medium containing 50 nM hPTH (1-34) for further 3 days. After the incubation, the ^45 Ca radioactivity in the medium and the bone was determined, and the proportion (%) of ^45 Ca released from the bone into the medium was calculated by the following formula.
Using the bone obtained from the same mouse and treated in the same manner without adding a test compound, as a control, the proportion (%) relative to the control group was determined according to the following formula.

Row | SMILES | IC50 [1] [nM] | further results
1 | COc1cc(CN2N=C(c3ccc(Cl)cc3)c3ccccc3-n3c(C)nnc32)cc(OC)c1OC [Example 79, 6-(4-Chlorophenyl)-1-methyl-4-(3,4,5-trimethoxybenzyl)-4H-2,3,4,5,10b-pentaazabenz[e]azulene] | 570 | –
2 | COc1cccc(CN2N=C(c3ccc(Cl)cc3)c3ccccc3-n3c(C)nnc32)c1 [Example 76, 6-(4-Chlorophenyl)-4-(3-methoxybenzyl)-1-methyl-4H-2,3,4,5,10b-pentaazabenz[e]azulene] | 560 | –
3 | COc1ccc(CN2N=C(c3ccc(C)cc3)c3ccccc3-n3c(C)nnc32)cc1 [Example 46, 4-(4-Methoxybenzyl)-1-methyl-6-(4-methylphenyl)-4H-2,3,4,5,10b-pentaazabenz[e]azulene] | 420 | –
4 | COc1ccc(CN2N=C(c3ccc(Cl)cc3)c3ccccc3-n3c(C)nnc32)cc1[N+](=O)[O-] [Example 84, 6-(4-Chlorophenyl)-4-(4-methoxy-3-nitrobenzyl)-1-methyl-4H-2,3,4,5,10b-pentaazabenz[e]azulene] | 670 | –
5 | Cc1nnc2n1-c1ccccc1C(c1ccc(Cl)cc1)=NN2Cc1cc(F)ccc1F [Example 61, 6-(4-Chlorophenyl)-4-(2,5-difluorobenzyl)-1-methyl-4H-2,3,4,5,10b-pentaazabenz[e]azulene] | 810 | –
6 | Cc1nnc2n1-c1ccccc1C(c1ccc(Cl)cc1)=NN2Cc1cc(F)cc(F)c1 [Example 62, 6-(4-Chlorophenyl)-4-(3,5-difluorobenzyl)-1-methyl-4H-2,3,4,5,10b-pentaazbenz[e]azulene] | 710 | –
7 | Cc1nnc2n1-c1ccccc1C(c1ccc(Cl)cc1)=NN2Cc1cccc([N+](=O)[O-])c1 [Example 68, 6-(4-Chlorophenyl)-1-methyl-4-(3-nitrobenzyl)-4H-2,3,4,5,10b-pentaazabenz[e]azulene] | 330 | –
8 | Cc1nnc2n1-c1ccccc1C(c1ccc(Cl)cc1)=NN2Cc1ccc(C#N)cc1 [Example 74, 6-(4-Chlorophenyl)-4-(4-cyanobenzyl)-1-methyl-4H-2,3,4,5,10b-pentaazabenz[e]azulene] | 430 | –
9 | COc1ccc(CN2N=C(c3ccc(Cl)cc3)c3ccccc3-n3c(C)nnc32)cc1 [Example 77, 6-(4-Chlorophenyl)-4-(4-methoxybenzyl)-1-methyl-4H-2,3,4,5,10b-pentaazabenz[e]azulene] | – | IC50 [2]: 120 nM
10 | Cc1nnc2n1-c1ccccc1C(c1ccc(Cl)cc1)=NN2Cc1cccnc1 [Example 98, 6-(4-Chlorophenyl)-1-methyl-4-(pyridin-3-ylmethyl)-4H-2,3,4,5,10b-pentaazabenz[e]azulene] | – | IC50 [2]: 540 nM
11 | C=C(Br)CN1N=C(c2ccc(Cl)cc2)c2ccccc2-n2c(C)nnc21 [Example 113, 4-(2-Bromo-2-propenyl)-6-(4-chlorophenyl)-1l-methyl-4H-2,3,4,5,10b-pentaazabenz[e]azulene] | – | IC50 (Mus musculus, 72 h): 500 nM
12 | Cc1nnc2n1-c1ccccc1C(c1ccc(Cl)cc1)=NN2Cc1ccccc1F [Example 57, 6-(4-Chlorophenyl)-4-(2-fluorobenzyl)-1-methyl-4H-2,3,4,5,10b-pentaazabenz[e]azulene] | 720 | –
13 | Cc1nnc2n1-c1ccccc1C(c1ccc(Cl)cc1)=NN2Cc1cccc(C#N)c1 [Example 56, 6-(4-Chlorophenyl)-4-(3-cyanobenzyl)-1-methyl-4H-2,3,4,5,10b-pentaazabenz[e]azulene] | 250 | –
14 | Cc1nnc2n1-c1ccccc1C(c1ccc(Cl)cc1)=NN2Cc1cccc(Cl)c1 [Example 70, 4-(3-Chlorobenzyl)-6-(4-chlorophenyl)-1-methyl-4H-2,3,4,5,10b-pentaazabenz[e]azulene] | 640 | –
15 | COc1ccc(CN2N=C(c3ccc(Cl)cc3)c3ccccc3-n3c(C)nnc32)cc1 [Example 40, 6-(4-Chlorophenyl)-4-(4-methoxybenzyl)-1-methyl-4H-2,3,4,5,10b-pentaazabenz[e]azulene] | 120 | –
16 | Cc1nnc2n1-c1ccccc1C(c1ccc(Cl)cc1)=NN2Cc1ccc(F)cc1 [Example 59, 6-(4-Chlorophenyl)-4-(4-fluorobenzyl)-1-methyl-4H-2,3,4,5,10b-pentaazabenz[e]azulene] | – | IC50 (Mus musculus, 72 h): 680 nM
17 | Cc1nnc2n1-c1ccc(Cl)cc1C(c1ccccc1)=NN2Cc1ccncc1 [Example 126, 8-Chloro-1-methyl-6-phenyl-4-(pyridin-4-ylmethyl)-4H-2,3,4,5,10b-pentaazabenz[e]azulene] | – | IC50 (Mus musculus, 72 h): 530 nM

Second part, led by results:

Row | IC50 [1] [nM] | SMILES | further results
18 | 860 | COc1ccc(CN2N=C(c3ccc(Cl)cc3)c3ccccc3-n3c(C)nnc32)cc1Cl [Example 85, 4-(3-Chloro-4-methoxybenzyl)-6-(4-chlorophenyl)-1-methyl-4H-2,3,4,5,10b-pentaazabenz[e]azulene] | –
19 | 120 | Cc1sc2c(c1C)C(c1ccccc1)=NN(Cc1cccnc1)c1nnc(C)n1-2 [Example 145, 2,3,9-Trimethyl-4-phenyl-6-(pyridin-3-ylmethyl)-6H-5,6,7,8,9a-pentaazathien[2,3-e]azulene] | –
20 | 380 | C=C(Cl)CN1N=C(c2ccc(Cl)cc2)c2ccccc2-n2c(C)nnc21 [Example 112, 6-(4-Chlorophenyl)-4-(2-chloro-2-propenyl)-1l-methyl-4H-2,3,4,5,10b-pentaazabenz[e]azulene] | –
21 | 930 | Cc1nnc2n1-c1ccccc1C(c1ccccc1)=NN2Cc1cccnc1 [Example 128, 1-Methyl-6-phenyl-4-(pyridin-3-ylmethyl)-4H-2,3,4,5,10b-pentaazabenz[e]azulene] | –
22 | 740 | Cc1nnc2n1-c1ccccc1C(c1ccc(Cl)cc1)=NN2Cc1ccc(N(C)C)cc1 [Example 191, 6-(4-Chlorophenyl)-4-(4-dimethylaminobenzyl)-1-methyl-4H-2,3,4,5,10b-pentaazabenz[e]azulene hydrochloride] | –
23 | 650 | Cc1nnc2n1-c1ccccc1C(c1ccc(Cl)cc1)=NN2Cc1cc(Cl)nc(Cl)c1 [Example 123, 6-(4-Chlorophenyl)-4-(2,6-dichloropyridin-4-ylmethyl)-1-methyl-4H-2,3,4,5,10b-pentaazabenz[e]azulene] | –
24 | 180 | Cc1nnc2n1-c1ccc([N+](=O)[O-])cc1C(c1ccccc1)=NN2Cc1ccncc1 [Example 134, 1-Methyl-8-nitro-6-phenyl-4-(pyridin-4-ylmethyl)-4H-2,3,4,5,10b-pentaazabenz[e]azulene] | –
25 | 220 | Cc1nnc2n1-c1ccccc1C(c1ccc(Cl)cc1)=NN2Cc1ccncc1 [Example 120, 6(4-Chlorophenyl)-1-methyl-4-(pyridin-4-ylmethyl)-4H-2,3,4,5,10b-pentaazabenz[e]azulene] | –
26 | 180 | COc1ccc(C2=NN(Cc3cccnc3)c3nnc(C)n3-c3sc(C)c(C)c32)cc1 [Example 149, 4-(4-Methoxyphenyl)-2,3,9-trimethyl-6-(pyridin-3-ylmethyl)-6H-5,6,7,8,9a-pentaazathien[2,3-e]azulene] | –
27 | 340 | Cc1cc2c(s1)-n1c(C)nnc1N(Cc1cccnc1)N=C2c1ccccc1 [Example 143, 2,9-Dimethyl-4-phenyl-6-(pyridin-3-ylmethyl)-6H-5,6,7,8,9a-pentaazathien[2,3-e]azulene] | –
28 | 410 | Cc1ccc(C2=NN(Cc3ccncc3)c3nnc(C)n3-c3ccccc32)cc1 [Example 135, 1-Methyl-6-(4-methylphenyl)-4-(pyridin-4-ylmethyl)-4H-2,3,4,5,10b-pentaazabenz[e]azulene] | –
29 | 680 | CCc1cc2c(s1)-n1c(C)nnc1N(Cc1ccncc1)N=C2c1ccccc1 [Example 148, 2-Ethyl-9-methyl-4-phenyl-6-(pyridin-4-ylmethyl)-6H-5,6,7,8,9a-pentaazathien[2,3-e]azulene] | –
30 | 510 | C=C(C)CN1N=C(c2ccc(Cl)cc2)c2ccccc2-n2c(C)nnc21 [Example 111, 6-(4-Chlorophenyl)-1-methyl-4-(2-methyl-2-propenyl)-4H-2,3,4,5,10b-pentaazabenz[e]azulene] | –
31 | 710 | Cc1nc(CN2N=C(c3ccc(Cl)cc3)c3ccccc3-n3c(C)nnc32)cs1 [Example 100, 6-(4-Chlorophenyl)-4-(2-methyl-1,3-thiazol-4-ylmethyl)-1-methyl-4H-2,3,4,5,10b-pentaazabenz[e]azulene] | –
32 | 100 | Cc1sc2c(c1C)C(c1ccccc1)=NN(Cc1ccncc1)c1nnc(C)n1-2 [Example 146, 2,3,9-Trimethyl-4-phenyl-6-(pyridin-4-ylmethyl)-6H-5,6,7,8,9a-pentaazathien[2,3-e]azulene] | –
33 | 560 | Cc1nnc2n1-c1ccccc1C(c1ccc(Cl)cc1)=NN2Cc1ccccc1 [Example 94, 4-Benzyl-6-(4-chlorophenyl)-1-methyl-4H-2,3,4,5,10b-pentaazabenz[e]azulene] | –
34 | 780 | Cc1nnc2n1-c1ccccc1C(c1ccccc1)=NN2Cc1ccncc1 [Example 129, 1-Methyl-6-phenyl-4-(pyridin-4-ylmethyl)-4H-2,3,4,5,10b-pentaazabenz[e]azulene] | –
35 | 29 | COc1ccc(C2=NN(Cc3ccncc3)c3nnc(C)n3-c3sc(C)c(C)c32)cc1 [Example 150, 4-(4-Methoxyphenyl)-2,3,9-trimethyl-6-(pyridin-4-ylmethyl)-6H-5,6,7,8,9a-pentaazathien[2,3-e]azulene] | –
36 | 590 | Cc1cccc(CN2N=C(c3ccc(Cl)cc3)c3ccccc3-n3c(C)nnc32)c1 [Example 88, 6-(4-Chlorophenyl)-1-methyl-4-(3-methylbenzyl)-4H-2,3,4,5,10b-pentaazabenz[e]azulene] | –
37 | 270 | Cc1cc2c(s1)-n1c(C)nnc1N(Cc1ccncc1)N=C2c1ccccc1 [Example 144, 2,9-Dimethyl-4-phenyl-6-(pyridin-4-ylmethyl)-6H-5,6,7,8,9a-pentaazathien[2,3-e]azulene] | –
38 | 560 | Cc1nnc2n1-c1ccccc1C(c1ccc(Cl)cc1)=NN2Cc1ccc(O)cc1 [Example 184, 6-(4-Chlorophenyl)-4-(4-hydroxybenzyl)-1-methyl-4H-2,3,4,5,10b-pentaazabenz[e]azulene] | –
39 | 590 | Cc1ccc(C2=NN(Cc3cccc(C#N)c3)c3nnc(C)n3-c3ccccc32)cc1 [Example 136, 4-(3-Cyanobenzyl)-1-methyl-6-(4-methylphenyl)-4H-2,3,4,5,10b-pentaazabenz [e]azulene] | –
